From patent publication US10292940B2, “Hyaluronic acid-based amphiphilic polymer, preparation method and application thereof” (BrightGene Bio-Medical Technology Co., Ltd., priority 2015, dated 2019)
Where two headings read alike, the source gives them in different places.

Experiments:
[1] = system: MCF-7/ADR tumor; assay: Bio-distribution in organs of tumor-bearing nude mice; type: in vivo; settings: DOX about 15 mg/kg, tail vein, after 10 h
[2] = system: MCF-7/ADR tumor; assay: Anti-tumor effect in nude mice bearing drug-resistant breast-cancer tumor
Text: (§1) Tumor-bearing nude mice with a tumor size of 50 mm^3 were randomly divided into three groups (six in each group), and this day is set to day 0. […] Effects of drug-loaded micelles on tumor growth in nude mice were regularly measured with a caliper. Changes in body weight of nude mice were regularly weighed with a balance. The tumor size was obtained based on a formula V=0.5×L×W×H […] of the longest points of the tumor; W is the length of the shortest points of the tumor; H is the height of the tumor). After 24 days, one mouse was randomly taken from each group and was killed by neck and spine dislocation, and the heart, liver and tumor of each mouse were removed and fixed with 4% formaldehyde, sliced and stained with hematoxylin and eosin (H & E) and subjected to histological analysis. The remaining nude mice were still observed. Mice were considered to be died when the nude mice died during treatment, or the tumor volume exceeded 1000 mm^3. Relative tumor volume (%)=tumor volume/tumor volume on day 0×100%. Relative weight change (%)=body weight of nude mice/body weight of nude mice on day 0×100%.

[3] = system: MCF-7/ADR tumor; assay: Ex vivo imaging of organs of tumor-bearing nude mice; type: in vivo; settings: DOX about 15 mg/kg, 10 h
Method: After 10 h, the heart, liver, spleen, lung, kidney and tumor block were collected, washed and fixed on a black plastic plate, which was then placed in a Maestro in vivo imaging system, and the intensity of DOX distribution in vivo was measured at an emission wavelength of 523 nm.

[4] = Blood circulation in mice after tail vein injection; settings: DOX 15 mg/kg, up to 24 h
Method: Six about 5-8 weeks old nude mice weighing 18-22 g were randomly divided into two groups, and each group was administered with DOX-loaded HA-Lys-LA crosslinked nanoparticles (MnHA=35 kDa, DS=10%, DLC=12%) or free DOX (DOX dosage being 15 mg/kg) via tail vein injection. 10 μL of blood was withdrawn from the tail vein each time at different time points after injection for 2 minutes, 15 minutes, 30 minutes, 1 h, 2 h, 4 h, 6 h, 8 h, 12 h, 24 h. After the blood was withdrawn, the blood sample was weighed and dissolved in 100 μL of 1% Triton solution, and then 1 mL of 0.75 mol/L hydrochloric acid isopropanol solution was added thereto. The mixture was allowed to stand overnight in dark at −20° C. After centrifugation, the supernatant was subjected to fluorescence test. % ID/g=(FL sample×(V Triton+V hydrochloric acid))/(M blood×FL standard×V standard×standard dilution factor)×100%
Six about 5-8 weeks old nude mice weighing 18-22 g were randomly divided into two groups, and each group was administered with DOX-loaded HA-Lys-LA crosslinked nanoparticles (MnHA=35 kDa, DS=40%, DLC=20%) or free DOX (DOX dosage being 15 mg/kg) via tail vein injection. […] After centrifugation, the supernatant was subjected to fluorescence test. % ID/g=(FL sample×(V Triton+V hydrochloric acid))/(M blood×FL standard×V standard×standard dilution factor)×100% […]

[5] = system: LP1 tumor (multiple myeloma)
Method: as §1, with “[…]” for “50 mm^3”, “V=0.5×L×W×H (L” for “V=0.5×L×W×H”, “[…]” for “nude mice/body”

For `COc1cccc2c1C(=O)c1c(O)c3c(c(O)c1C2=O)C[C@@](O)(C(=O)CO)C[C@@H]3O[C@H]1C[C@H](N)[C@H](O)[C@H](C)O1` [free DOX, doxorubicin], the “enrichment of DOX at the tumor site” value [1] was 0.63 % ID/g, the “reduction of body weight of nude mice” value ([2]; DOX about 7.5 mg/kg) was 28% and the side effects ([2]; DOX about 7.5 mg/kg) was “large side effects”. The “time within which all mice died” value ([2]; DOX about 7.5 mg/kg) was no more than 28 days, the tumor volume growth ([2]; DOX about 7.5 mg/kg, tail vein) was “could not inhibit tumor growth” and the “H&E histology of heart and liver” value ([2]; after 24 days) was “liver corresponding to the free DOX group was greatly damaged, and myocardial cell atrophied”. For the same molecule, the “H&E histology of tumor tissue” value ([2]; after 24 days) was “grew vigorously”, the “DOX distribution in tumor and organs (ex vivo fluorescence)” value [3] was “almost did not concentrate at the tumor site” and the “blood circulation (DOX in mice blood)” value [4] was “almost not detected in mice blood after 2 h”. The “reduction of body weight of nude mice” value ([5]; DOX about 7.5 mg/kg) was “about 34%”, the “side effects / tolerance” value ([5]; DOX about 7.5 mg/kg) was “large side effects” and the “time within which all mice died” value ([5]; DOX about 7.5 mg/kg) was no more than 15 days. For the same molecule, the “tumor volume growth / therapeutic effect” value ([5]; DOX about 7.5 mg/kg, tail vein) was “could not inhibit tumor growth”, the “side effects / tolerance” value ([5]; DOX about 7.5 mg/kg, listed as free drug) was “not tolerated” and the “H&E histology of heart and liver” value ([5]; after 24 days) was “liver corresponding to the free DOX group was greatly damaged, and myocardial cell atrophied”. For the same molecule, the “H&E histology of tumor tissue” value ([5]; after 24 days) was “grew vigorously”.
